Like-named read-outs stand apart in the source and are kept apart here. Blank lines part the entries; values can stand above or below the compound they belong to.
Assays:
FXR [1] = biological target: T1, FXR (Homo sapiens, UniProt Q96RI1); experiment: Dual-luciferase reporter assay of FXR transcription (IR-1-CON-luc and PLTP-luc) in HeLa cells; assay type: cell-based
T1 construct: Luciferase with FL-FXR and Coregulators; expressed in transfected cells; host or cells: HeLa cells
T1 sequence (Q96RI1 1-476 isoform Q96RI1-1): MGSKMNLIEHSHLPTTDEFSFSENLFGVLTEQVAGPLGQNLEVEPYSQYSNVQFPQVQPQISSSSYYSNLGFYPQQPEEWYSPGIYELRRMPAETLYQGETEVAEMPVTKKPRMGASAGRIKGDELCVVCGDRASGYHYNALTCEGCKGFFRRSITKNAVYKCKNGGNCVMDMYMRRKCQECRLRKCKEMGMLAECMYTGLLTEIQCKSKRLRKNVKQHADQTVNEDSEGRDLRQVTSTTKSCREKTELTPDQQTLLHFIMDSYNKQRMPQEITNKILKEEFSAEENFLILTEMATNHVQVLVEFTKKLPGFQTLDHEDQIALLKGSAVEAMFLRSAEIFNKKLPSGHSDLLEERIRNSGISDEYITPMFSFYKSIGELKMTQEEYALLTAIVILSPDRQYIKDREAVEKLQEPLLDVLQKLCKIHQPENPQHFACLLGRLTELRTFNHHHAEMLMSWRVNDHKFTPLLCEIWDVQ
T1 sequence (P19793 1-462 partner): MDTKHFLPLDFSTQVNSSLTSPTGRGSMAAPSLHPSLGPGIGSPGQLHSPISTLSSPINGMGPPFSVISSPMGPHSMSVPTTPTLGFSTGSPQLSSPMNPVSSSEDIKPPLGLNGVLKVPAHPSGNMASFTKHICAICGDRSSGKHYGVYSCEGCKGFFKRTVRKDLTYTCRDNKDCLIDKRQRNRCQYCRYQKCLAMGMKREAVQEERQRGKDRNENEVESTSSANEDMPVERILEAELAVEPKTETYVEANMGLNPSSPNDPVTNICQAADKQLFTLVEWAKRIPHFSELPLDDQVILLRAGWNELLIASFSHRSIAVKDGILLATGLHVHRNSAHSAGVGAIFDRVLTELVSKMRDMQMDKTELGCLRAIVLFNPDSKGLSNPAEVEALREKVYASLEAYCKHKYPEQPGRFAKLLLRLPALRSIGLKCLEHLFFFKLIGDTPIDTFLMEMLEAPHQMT

FXR [2] = details: cited from earlier work

Description: HeLa cells were obtained from American Type Culture Collection, and the cells were grown in culture in minimum essential medium alpha (Thermo Fisher Scientific) supplemented with 10% FBS and 1% L-glutamine at 37 °C with humidified atmosphere at 5% CO2.
Cells were seeded 10,000 cells/well in a 96-well, clear flat, bottom cell culture plate. Cotransfection was performed with equal amount of 5 ng of each expression plasmids pcDNA3.1-FXR and pcDNA3.1-RXR, along with 50 ng of the pGL4.31-derived plasmids containing the FXRE and 1 ng of renilla luciferase (pRL-CMV). […]
At 24 h after transfection, cells were stimulated with DMSO (final concentration of 0.71%) or test ligands at final concentrations 10 μM or 100 μM, as appropriate. After another 24 h incubation, Firefly luciferase activity and Renilla luciferase activity were measured using the Dual-Glo kit (Promega) using a SpectraMax iD5 plate reader. […]
Data for luciferase assays are presented as the mean ± standard SD of at least three independent replicates. p values were calculated using two-way ANOVA with Dunnett’s multiple comparisons test to access the differences between specific pairs of means. For coregulator mean comparisons, p values were calculated using one-way ANOVA with Sidaks’s multiple comparisons. […]

luciferase activity (efficacy of FXR transcriptional activation) (FXR [1]; 100 μM ligand, compared with 10 μM OCA, Fig. S1A): falls short of 10 μM OCA levels
Compound: C[C@H](CCC(=O)O)[C@H]1CC[C@H]2[C@@H]3CC[C@@H]4C[C@H](O)CC[C@]4(C)[C@H]3CC[C@]12C [LCA, lithocholic acid]

luciferase activity (efficacy of FXR transcriptional activation) (FXR [1]; 10 μM ligand, both IR-1-CON-luc and PLTP-luc, compared among OCA, CDCA, LCA): highest efficacy
Compound: CC[C@H]1[C@@H](O)[C@@H]2[C@H](CC[C@]3(C)[C@@H]([C@H](C)CCC(=O)O)CC[C@@H]23)[C@@]2(C)CC[C@@H](O)C[C@@H]12 [OCA, obeticholic acid]

— article PMC11783427, “Enhanced dynamic coupling in a nuclear receptor underlies ligand activity” (The Journal of Biological Chemistry, 2024)
